Read-outs that look alike come from different tables or passages of the source.
Tested on: serum lipids
Experiment: Lipid-lowering action in normolipemic rats
Assay type: in vivo
Conditions: Rattus norvegicus, 72 h, 4 × 100 mg/kg oral over 3 days, male Wistar rats, vs controls, X ± Sx
Description: Lipid-lowering action was tested on groups of 10 male Wistar rats (Ivanovas-Kisslegg), weight 200-220 g, normolipemic, or ordinary ration ("ssniff" complete feed).
The test compounds were taken up in an aqueous solution of 0.25% agar and 0.85% NaCl and administered orally. After administration of 4 × 100 mg/kg over a period of 3 days, the animals were bled by cardiac puncture after privation of […] for 4 hours.^1
^1 H. Enomoto and R. Zschocke, 3rd Int. Symp. Atheroscler, Berlin 1973, Abstr. 238.
Serum lipids were determined with a Technicon autoanalyzer. Total cholesterol (TC) was tested by the Liebermann-Burchard reaction. Quantitative analysis for triglycerides (TG) was performed by Eggstein and Kreutz's enzyme method (Klin. Wschr. 44, 262, 1966), modified for autoanalyzer.
Lipid lowering effect is expressed as percent lowering of total cholesterol and triglycerides compared to controls.

[1] = read-out: % Lowering TC (total cholesterol)
[2] = read-out: % Lowering TG (triglycerides)

| Structure (SMILES) | inhibition in vivo at 100 mg/kg [1] | inhibition in vivo at 100 mg/kg [2] |
| --- | --- | --- |
| O=C(OCc1cccnc1)c1ccc(OCC(O)COc2ccc(Cl)cc2)cc1 (centres unmarked) [Compound 85, 3-(4'-pyridyl-(3)-methoxycarbonylphenoxy)-1-(4'-chlorophenoxy)-propanol-(2)] | 52 ± 8.6% | 81.4 ± 5.9% |
| COC(=O)c1ccc(OCC(O)CSc2ccc(C(C)(C)C)cc2)cc1 (centres unmarked) [Compound 43] | 37.2 ± 13.8% | 71 ± 12.5% |
| O=C(O)c1ccc(OCC(O)COc2ccc(Cl)cc2)cc1 (centres unmarked) [Compound 53, 3-(4'-Carboxyphenoxy)-1-(4'-chlorphenoxy)-propanol-(2)] | 40.5 ± 13.5% | 83.6 ± 15.5% |
| O=C(O)C=Cc1ccc(OCC(O)COc2ccc(Cl)cc2)cc1 (centres unmarked) [Compound 55, 3-(4'-(2-carboxyvinyl)-phenoxy)-1-(4'-chlorophenoxy)propanol-(2)] | 45.4 ± 9.2% | 49.9 ± 23.7% |
| COC(=O)C=Cc1cccc(OCC(O)COc2ccc(Cl)cc2)c1 (centres unmarked) [Compound 14] | 22.9 ± 5.2% | 64.8 ± 17.7% |
| COC(OC)c1ccc(OCC(O)COc2ccc(C(C)(C)C)cc2)cc1 (centres unmarked) [Compound 113] | 44.4 ± 11.2% | 84 ± 8.8% |
| COC(OC)c1ccc(OCC(O)CSc2ccc(Cl)cc2)cc1 (centres unmarked) [Compound 116] | 43.2 ± 9.8% | 74 ± 9.8% |
| CC(C)OC(=O)c1ccc(OCC(O)COc2ccc(Cl)cc2)cc1 (centres unmarked) [Compound 5] | 15.5 ± 14.7% | 54.6 ± 28.3% |
| O=C(CCc1ccc(OCC(O)COc2ccc(Cl)cc2)cc1)NO (centres unmarked) [Compound 107] | 49.6 ± 13.3% | 84.8 ± 4.1% |
| COCCOC(=O)C=Cc1ccc(OCC(O)COc2ccc(Cl)cc2)cc1 (centres unmarked) [Compound 47] | 44.4 ± 18% | 57.8 ± 10.7% |
| O=C(C=Cc1ccc(OCC(O)COc2ccc(Cl)cc2)cc1)NO (centres unmarked) [Compound 106, 3-(4'-(2-(n-hydroxycarbamoyl)-vinyl)-phenoxy)-1-(4'-chlorophenoxy)-propanol-(2)] | 43.9 ± 19.4% | 64.2 ± 17.1% |
| CC(C)OC(=O)c1ccc(OCC(O)COc2ccc(C(C)(C)C)cc2)cc1 (centres unmarked) [Compound 19] | 44.9 ± 8% | 72.9 ± 6.1% |
| COC(=O)c1ccc(OCC(CSc2ccc(Cl)cc2)OC(=O)c2cccnc2)cc1 (centres unmarked) [Compound 104] | 48 ± 7.9% | 81.1 ± 5.6% |
| CCOC(OCC)c1ccc(OCC(O)COc2ccc(Cl)cc2)cc1 (centres unmarked) [Compound 110] | 32.1 ± 15.8% | 68 ± 6.5% |
| O=C(O)c1cccc(OCC(O)COc2ccc(Cl)cc2)c1 (centres unmarked) [Compound 54, 3-(3'-Carboxyphenoxy)-1-(4'-chlorphenoxy)-propanol-(2)] | 28.7 ± 10.2% | 80 ± 11.4% |
| O=C(C=Cc1ccc(OCC(O)COc2ccc(Cl)cc2)cc1)OCCO (centres unmarked) [Compound 46] | 32.3 ± 19.7% | 69.5 ± 8.9% |
| CCCOC(=O)C=Cc1ccc(OCC(O)COc2ccc(Cl)cc2)cc1 (centres unmarked) [Compound 12] | 40.3 ± 10.8% | 67 ± 15.7% |
| O=C(OCCO)c1ccc(OCC(O)CNc2ccc(Cl)cc2)cc1 (centres unmarked) [Compound 52] | 50 ± 10% | 53.9 ± 13.3% |
| O=C(O)CCc1cccc(OCC(O)COc2ccc(Cl)cc2)c1 (centres unmarked) [Compound 58, 3-3'-(2-Carboxyathyl)-phenoxy!-1-(4'-chlorphenoxy)-propanol-(2)] | 42.2 ± 5.6% | 71.3 ± 7.6% |
| CC(C)(C)c1ccc(OCC(O)COc2ccc(C=CC(=O)O)cc2)cc1 (centres unmarked) [Compound 61, 3-4'-(2-Carboxyvinyl)-phenoxy!-1-(4'-t-butylphenoxy)-propanol-(2)] | 44.9 ± 13.8% | 81.2 ± 17.1% |
| CC(C)(C)c1ccc(OCC(O)COc2ccc(CCC(=O)O)cc2)cc1 (centres unmarked) [Compound 62, 3-4'-(2-Carboxyathyl)-phenoxy!-1-(4'-t-butylphenoxy)-propanol-(2)] | 38.7 ± 15% | 91.9 ± 5% |
| COC(=O)C=Cc1ccc(OCC(O)CNc2ccc(C(C)(C)C)cc2)cc1 (centres unmarked) [Compound 37, 3-(4'-(2'-methoxycarbonylvinyl)-phenoxy)-1-(4'-t-butylphenylamino)-propanol-(2)] | 32.8 ± 13.7% | 71.9 ± 13.5% |
| O=C(O)c1ccc(NCC(O)COc2ccc(Cl)cc2)cc1 (centres unmarked) [Compound 68, 3-(4'-Carboxyphenylamino)-1-(4'-chlorphenoxy)-propanol-(2)] | 15.2 ± 10% | 54.1 ± 17% |
| CC(C)(C)c1ccc(OCC(O)COc2ccc(C(=O)NO)cc2)cc1 (centres unmarked) [Compound 108] | 51.1 ± 8.3% | 77.8 ± 3.3% |
| CC(C)OC(=O)C=Cc1ccc(OCC(O)COc2ccc(Cl)cc2)cc1 (centres unmarked) [Compound 13] | 50.4 ± 7.3% | 79.7 ± 10.4% |

From US4073935A, “Substituted propanol-(2)-derivatives and their nicotinic acid esters, and process for their preparation, and the use thereof as hypolipemic drugs” (Klinge Pharma GmbH & Co., priority 1974, dated 1978)
